Assay results from patent publication US8003331B2, “Method for identifying target protein of drug and method for screening therapeutic agent for diabetes using the target protein” (Astellas Pharma Inc., priority 2005, dated 2011).
“Also recorded” adds a separate entry of the source.

Experiments:
human ATP5B [1] = molecular target: T1, human ATP5B (Homo sapiens, UniProt P06576); assay: GST-DHFR / MTX-phenformin GST pull-down of 35S-labeled ATP5B; format: binding
T1 construct: an attempt was made to amplify complete length cDNA of human ATP5B; made in house; host or cells: cell-free: TNT Quick Coupled Transcription/Translation System (Promega) from pcDNA-ATP5B; GST-DHFR from E. coli BL21
Experimental: Promega) and 0.74 MBq of a radioisotope (redivue Pro-mix L-[35S]; Amersham) and in accordance with the protocols attached thereto. A 15 μl portion of this human ATP5B protein preparation liquid and 1 μg for each of the GST protein or GST-DHFR, purified on the glutathione Sepharose beads, were mixed and shaken at 4° C. for 1 hour after adding 0.3 ml of buffer A thereto. Thereafter, the protein binding to the GST protein or GST-DHFR on beads was co-precipitated by centrifugation. After repeating this operation 4 times, proteins in the precipitate were separated by SDS polyacrylamide gel electrophoresis in accordance with a conventionally known method, and the protein bound to the probe was detected by an autoradiography.

AMPK = AMPK activation ability detection in HeLa S3 cell (anti-phospho AMPK western blotting); format: cell-based, human; conditions: phenformin 1 mM, 1 hr; for phosphorylation level (activation) of AMPK: HeLa S3 cell without ATP5B over-expression (empty vector- or pcDNA-LKB1-transferred), concentration of compounds A and B not given; for activation of AMPK in cell over-expressing human ATP5B: pcDNA-ATP5B-transferred HeLa S3 cell, metformin 10 mM
Experimental: This expression plasmid pcDNA-LKB1 and the pcDNA-ATP5B prepared in the aforementioned Example 5(1) or an empty vector (pcDNA3.1) (Invitrogen) were transferred into HeLa S3 cell. The HeLa S3 cell (ATCC) was cultured in a 6 well culture plate (35 mm in well diameter) until it reached a state of 70% confluent, by adding 2 ml of a minimum essential medium DMEM (Gibco) containing 10% fetal bovine serum (Sigma) to each well of the culture plate. The medium was substituted by 1 ml per well of a serum-free medium OPTI MEM I (Invitrogen), and 3.0 μg/well of each of the empty vector (pcDNA3.1), pcDNA-LKB1 and pcDNA-ATP5B was transiently transferred using Lipofect amine 2000 (Invitrogen). After 12 hours of the culturing, this was substituted by 2 ml/well of DMEM containing 10% of fetal bovine serum from which low molecular substances had been removed by a charcoal treatment, and further cultured for 36 hours. This was further cultured for 1 hour (1 hr) under a condition of adding phenformin (Sigma) to a final concentration of 1 mM or the solvent (DMSO) alone. The medium was discarded, the cells were washed with a phosphate buffer (to be referred to as PBS hereinafter, and then the cells were lysed by adding 0.15 ml of the aforementioned buffer A (however, the NaCl concentration was 150 mM, and various phosphatase inhibitors; 2 mM Na3VO4, 10 mM NaF, 25 mM β-glycerophosphate, 0.2 mM Na2MoO4, 20 nM okadaic acid, were added). The activity of AMPK in the cells was detected at the level of phosphorylation of molecules by a conventionally known SDS electrophoresis and a western blotting which uses an anti-phosphorylation AMPK antibody (Phospho-AMPK-α(Thr172) Antibody, Daiichi Pure Chemicals). In this case, in order to confirm that there is no difference in the amount of protein of AMPKα (an AMPK subunit which undergoes phosphorylation) among samples, a western blotting which uses an anti-AMPKα antibody (Daiichi Pure Chemicals) was simultaneously carried out. […] However, in the cell in which human ATP5B was expressed by transferring pcDNA-ATP5B, activation of AMPK by phenformin treatment was not found.

human ATP5B [2] = molecular target: T1, human ATP5B; assay: competitive inhibition of binding of ATP5B and MTX-phenformin; conditions: MTX-phenformin 10 μM; free phenformin 10 μM; compounds A and B 'addition of 10'
db/db mouse = assay: blood sugar level and blood lactic acid level in db/db mouse after intraperitoneal administration; format: in vivo; conditions: db/db mice, fasting, metformin 300 mg/kg; for blood lactic acid level: compound 100 mg/kg, 0, 90, 180 minutes; for hypoglycemic action (blood sugar level): compound 100 mg/kg, 90 and 180 minutes, vs vehicle group
Excerpt: As described in the aforementioned Example 6, the compound A and compound B found by the screening method of the present invention have the ability to activate AMPK in cells. Next, whether or not these compounds have the in vivo hypoglycemic action similar to the case of biguanide was examined. At the same time, action of the aforementioned 2 compounds on the increase of blood lactic acid value as an adverse side effect of biguanide was also examined. A total of 15 animals of 11 weeks of age of db/db mouse (BKS.Cg-+Leprdb/+Leprdb/Jcl; CLEA Japan) as a diabetes model mouse were divided into 3 groups, each consisting of 5 animals. […] They were subjected to fasting at the same time with the administration, and blood samples were collected from the tail of each animal 0 minute, 90 minutes and 180 minutes thereafter to measure blood sugar level and blood lactic acid level. The blood sugar level was measured using a simplified blood sugar analyzer (Acu Check Active II; Roche), and the blood lactic acid level was measured using a simplified lactic acid analyzer (Lactate Pro; Arkray Marketing), respectively. In the same manner, 12 animals of the db/db mouse of 18 weeks of age were divided in 3 groups, 4 animals for each. […] In the same manner as the above, they were subjected to fasting at the same time with the administration, and the blood sugar level and blood lactic acid level were respectively measured 0 minute, 90 minutes and 180 minutes thereafter in the same as described in the above.

TNF-α = TNF-α gene expression in HeLa S3 cell (real time PCR, corrected by β-actin); format: cell-based, human; conditions: okadaic acid 50 nM
Experimental: The pcDNA-TARDBP or an empty vector (pcDNA3.1) (Invitrogen) was transferred into HeLa S3 cell. Illustratively, the HeLa S3 cell (ATCC) was firstly cultured in a 12 well culture plate until it reached a state of 70% confluent, by adding 1 ml of a minimum essential medium DMEM (Gibco) containing 10% fetal bovine serum (Sigma) to each well of the culture plate. The medium was substituted by 0.5 ml per well of a serum-free medium OPTI MEM I (Invitrogen), and 0.8 μg/well of the pcDNA-TARDBP or pcDNA3.1 was transiently transferred using Lipofect amine 2000 (Invitrogen). After 12 hours of the culturing, this was substituted by 1 ml/well of DMEM containing 10% of fetal bovine serum and further cultured for 12 hours. This was further cultured for 16 hours under a condition of adding or not adding okadaic acid (Wako Pure Chemical Industries) to a final concentration of 50 nM. In this case, […] was added a part of the cells simultaneously with the okadaic acid treatment. The medium was discarded, the cells were washed twice with ice-cooled PBS, and then these cells were frozen and stored at −80° C.
Total RNA was prepared from each cell frozen in the aforementioned Example 9(2), using a reagent for RNA extraction use (Isogen; Nippon Gene) and in accordance with the instructions attached thereto. The thus prepared each total RNA was then treated with a deoxyribonuclease (Nippon Gene), subjected to phenol/chloroform treatment and ethanol precipitation and dissolved in sterile water. Using 1 μg of this total RNA, its reverse transcription into a single-stranded cDNA was carried out in a system of 20 μl using a kit for reverse transcription reaction use (Advantage™ RT-for-PCR Kit; Clontech).
Six oligonucleotides (SEQ ID NO:97 to SEQ ID NO:102) were designed and synthesized as primers of PCR for the measurement of gene expression quantity. A combination of SEQ ID NO:97 and SEQ ID NO:98 was used for human β-actin gene, and a combination of SEQ ID NO:99 and SEQ ID NO:100 for human TNF-α gene, and a combination of SEQ ID NO:101 and SEQ ID NO:102 for human TARDBP gene, respectively. […]
The expression quantities of human TNF-α gene and human TARDBP gene in each sample were corrected by the expression quantity of β-actin gene based on the following equation. [Corrected expression quantity of TNF-α or TARDBP]=[expression quantity of TNF-α or TARDBP gene (raw data)/[expression quantity of β-actin gene (raw data)]
In comparing the expression quantities of TNF-α and TARDBP genes, relative amounts were calculated by regarding the expression quantity in a cell, into which an empty vector (pcDNA3.1) was transferred and which was treated only with the solvent (DMSO), as 100, with the results sown in FIG. 9 and FIG. 10. […]

| SMILES | binding with human ATP5B (band of about 60 kDa, autoradiography) (human ATP5B [1]; 10 μM MTX-phenformin fixed to GST-DHFR, wild type ATP5B) | binding to the ATP5B protein with increasing concentration (human ATP5B [1]; MTX-phenformin 1.0, 10, 100 μM) | phosphorylation level (activation) of AMPK (AMPK) | activation of AMPK in cell over-expressing human ATP5B (AMPK) | influence on binding of ATP5B and MTX-phenformin (human ATP5B [2]) | blood lactic acid level (db/db mouse) | hypoglycemic action (blood sugar level) (db/db mouse) | action to accelerate expression of TNF-α (TNF-α; TARDBP high expression cell, compared with control cell) | increase of expression of TNF-α (TNF-α; control cell (empty vector HeLa S3), 16 hours) |
| --- | --- | --- | --- | --- | --- | --- | --- | --- | --- |
| CN(Cc1cnc2nc(N)nc(N)c2n1)c1ccc(C(=O)N[C@@H](CCC(=O)NCCCNC(=N)NC(=N)N)C(=O)O)cc1.Cl.Cl [MTX-phenformin, (2S)-5-[(3-{[{[amino(imino)methyl]amino}(imino)methyl]amino}propyl)amino]-2-({4-[[(2,4-diaminopteridin-6-yl)methyl](methyl)amino]benzoyl}amino)-5-oxopentanonic acid dihydrochloride] | detected in the form of binding to the GST-DHFR, only under the condition of adding the MTX-phenformin | clearly detected |  |  |  |  |  |  |  |
| Oc1ccccc1/C=N/c1nc[nH]n1 [compound A, 2-[(E)-(1H-1,2,4-triazol-3-ylimino)methyl]phenol] |  |  | significant AMPK activation ability | disappeared | obstruct binding of ATP5B and MTX-phenformin | did not induce increase; also recorded: without causing in vivo accumulation of lactic acid | hypoglycemic action after 90 minutes and 180 minutes having a significant difference; also recorded: show hypoglycemic action |  |  |
| CN(C)C(=N)N=C(N)N [metformin] |  |  |  | not found |  | significant increase | significant hypoglycemic action |  |  |
| Nc1nc(Cl)c2nc[nH]c2n1 [compound B, 6-chloro-9H-purine-2-amine] |  |  | significant AMPK activation ability | disappeared | obstruct binding of ATP5B and MTX-phenformin |  | hypoglycemic action after 90 minutes and 180 minutes having a significant difference; also recorded: show hypoglycemic action |  |  |
| C=C1[C@@H](O)[C@@H]2O[C@]3(CC[C@H](/C=C/[C@@H](C)[C@@H]4CC(C)=C[C@@]5(O[C@H](C[C@@](C)(O)C(=O)O)CC[C@H]5O)O4)O3)CC[C@H]2O[C@@H]1[C@@H](O)C[C@H](C)[C@H]1O[C@@]2(CCCCO2)CC[C@H]1C [okadaic acid] |  |  |  |  |  |  |  | almost the same | up to 80 times |
